Inhibition data for three compounds are collected here from ChEMBL document CHEMBL4052759, “Discovery of DS79182026: A potent orally active hepcidin production inhibitor” (Bioorg Med Chem Lett, 2017).

For one assay, the species on record is Homo sapiens. The experiment in a line: Inhibition of p70S6K (unknown origin) at 0.49 uM relative to control.
Assay [1] addresses Ephrin type-A receptor 2 (Homo sapiens) (UniProt P29317). The experiment in a line: Inhibition of EPHA2 (unknown origin) at 0.49 uM relative to control.
Assay [2] has as its target Ephrin type-A receptor 8 (Homo sapiens) (UniProt P29322). The assay is described as follows: Inhibition of EPHA8 (unknown origin) at 0.49 uM relative to control.
Assay [3] deals with T1, Protein kinase C zeta type (Homo sapiens) (UniProt Q05513).
T1 sequence (whole entry): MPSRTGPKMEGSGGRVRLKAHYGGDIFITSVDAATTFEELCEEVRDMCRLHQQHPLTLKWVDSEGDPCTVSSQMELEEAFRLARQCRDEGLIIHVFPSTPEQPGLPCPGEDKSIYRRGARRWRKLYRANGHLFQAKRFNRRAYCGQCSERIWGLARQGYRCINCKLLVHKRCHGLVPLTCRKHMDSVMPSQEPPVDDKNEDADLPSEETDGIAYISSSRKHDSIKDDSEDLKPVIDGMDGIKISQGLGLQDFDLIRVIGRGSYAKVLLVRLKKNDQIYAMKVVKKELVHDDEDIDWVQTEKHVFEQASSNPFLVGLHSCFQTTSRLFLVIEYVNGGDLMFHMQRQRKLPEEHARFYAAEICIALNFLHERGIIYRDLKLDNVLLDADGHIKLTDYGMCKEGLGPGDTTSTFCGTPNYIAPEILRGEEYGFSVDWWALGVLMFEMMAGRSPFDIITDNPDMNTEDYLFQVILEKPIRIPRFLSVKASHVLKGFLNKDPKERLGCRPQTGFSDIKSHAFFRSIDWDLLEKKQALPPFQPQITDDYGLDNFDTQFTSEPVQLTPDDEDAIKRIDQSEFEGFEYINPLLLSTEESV
The experiment in a line: Inhibition of PKC-zeta (unknown origin) at 0.49 uM relative to control.

For assay [4], the target named is Mitogen-activated protein kinase 1 (Homo sapiens) (UniProt P28482). The assay is described as follows: Inhibition of Erk2 (unknown origin) at 0.49 uM relative to control.
The target in assay [5] is Insulin receptor (Homo sapiens) (UniProt P06213). The experiment in a line: Inhibition of INSR (unknown origin) at 0.49 uM relative to control.
The target in assay [6] is Tyrosine-protein kinase ITK/TSK (Homo sapiens) (UniProt Q08881). The assay is described as follows: Inhibition of ITK (unknown origin) at 0.49 uM relative to control.
Assay [7] has as its target Serine/threonine-protein kinase BRSK2 (Homo sapiens) (UniProt Q8IWQ3). The assay is described as follows: Inhibition of BRSK2 (unknown origin) at 0.49 uM relative to control.
Assay [8] addresses Serine/threonine-protein kinase D3 (Homo sapiens) (UniProt O94806). The experiment in a line: Inhibition of PKD3 (unknown origin) at 0.49 uM relative to control.
In assay [9] the target is T2, Serine/threonine-protein kinase 3 (Homo sapiens) (UniProt Q13188).
T2 sequence (whole entry): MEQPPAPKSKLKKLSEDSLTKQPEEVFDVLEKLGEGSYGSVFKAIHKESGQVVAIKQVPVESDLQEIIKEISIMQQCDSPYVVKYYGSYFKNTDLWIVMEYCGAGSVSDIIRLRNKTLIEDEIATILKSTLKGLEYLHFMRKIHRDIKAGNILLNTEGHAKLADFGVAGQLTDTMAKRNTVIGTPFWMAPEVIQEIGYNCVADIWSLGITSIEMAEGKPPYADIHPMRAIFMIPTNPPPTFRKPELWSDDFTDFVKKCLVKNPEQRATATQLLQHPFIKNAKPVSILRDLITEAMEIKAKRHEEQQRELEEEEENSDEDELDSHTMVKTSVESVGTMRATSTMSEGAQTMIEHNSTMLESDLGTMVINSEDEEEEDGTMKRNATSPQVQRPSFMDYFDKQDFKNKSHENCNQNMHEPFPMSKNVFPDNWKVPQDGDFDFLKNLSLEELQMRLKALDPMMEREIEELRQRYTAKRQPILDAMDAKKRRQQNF
The experiment in a line: Inhibition of MST2 (unknown origin) at 0.49 uM relative to control.

Assay [10] has as its target Serine/threonine-protein kinase PAK 5 (Homo sapiens) (UniProt Q9P286). The assay is described as follows: Inhibition of PAK5 (unknown origin) at 0.49 uM relative to control.
Assay [11] addresses Proto-oncogene tyrosine-protein kinase ROS (Homo sapiens) (UniProt P08922). The experiment in a line: Inhibition of ROS (unknown origin) at 0.49 uM relative to control.
Assay [12] addresses RAF proto-oncogene serine/threonine-protein kinase (Homo sapiens) (UniProt P04049). The experiment in a line: Inhibition of c-Raf (unknown origin) at 0.49 uM relative to control.
In assay [13] the target is RAC-gamma serine/threonine-protein kinase (Homo sapiens) (UniProt Q9Y243). The assay is described as follows: Inhibition of AKT3 (unknown origin) at 0.45 uM relative to control.
For assay [14], the target named is Serine/threonine-protein kinase Nek6 (Homo sapiens) (UniProt Q9HC98). The assay is described as follows: Inhibition of NEK6 (unknown origin) at 0.45 uM relative to control.
For assay [15], the target named is Calcium/calmodulin-dependent protein kinase type 1 (Homo sapiens) (UniProt Q14012). The assay is described as follows: Inhibition of CaMK1a (unknown origin) at 0.45 uM relative to control.
In assay [16] the target is Mitogen-activated protein kinase kinase kinase kinase 4 (Homo sapiens) (UniProt O95819). The assay is described as follows: Inhibition of HGK (unknown origin) at 0.45 uM relative to control.
The target of assay [17] is Tyrosine-protein kinase Lck (Homo sapiens) (UniProt P06239). The experiment in a line: Inhibition of LCK (unknown origin) at 0.45 uM relative to control.
Assay [18] has as its target Platelet-derived growth factor receptor alpha (Homo sapiens) (UniProt P16234). The assay is described as follows: Inhibition of PDGFR alpha (unknown origin) at 0.45 uM relative to control.
Assay [19] addresses Maternal embryonic leucine zipper kinase (Homo sapiens) (UniProt Q14680). The experiment in a line: Inhibition of MELK (unknown origin) at 0.45 uM relative to control.
Assay [20] has as its target Serine/threonine-protein kinase pim-2 (Homo sapiens) (UniProt Q9P1W9). The assay is described as follows: Inhibition of PIM2 (unknown origin) at 0.45 uM relative to control.
For assay [21], the target named is Epidermal growth factor receptor (Homo sapiens) (UniProt P00533). The assay is described as follows: Inhibition of EGFR (unknown origin) at 0.45 uM relative to control.
The target of assay [22] is NT-3 growth factor receptor (Homo sapiens) (UniProt Q16288). The assay is described as follows: Inhibition of TRKC (unknown origin) at 0.45 uM relative to control.
Assay [23] concerns the target Protein kinase C beta (Homo sapiens) (UniProt P05771). The experiment in a line: Inhibition of PKC-beta1 (unknown origin) at 0.45 uM relative to control.
Assay [24] concerns the target AMP-activated protein kinase, AMPK (Homo sapiens) (UniProt P54646+O43741+P54619+Q9UGJ0+Q9Y478+Q13131+Q9UGI9). The assay is described as follows: Inhibition of AMPK (unknown origin) at 0.078 uM relative to control.
Assay [25] has as its target Vascular endothelial growth factor receptor 2 (Homo sapiens) (UniProt P35968). The experiment in a line: Inhibition of KDR (unknown origin) at 0.078 uM relative to control.

For orientation: inhibition means the relative decrease from the control value, in per cent. `Cc1[nH]nc(C2CC2)c1-c1ccc2c(NC(=O)C3CC3)noc2c1`: the inhibition in the assay listed under Homo sapiens is -5.3%; in assay [1] it was -0.3%; in assay [2], -2.7%; in assay [3], 5%; in assay [4], -0.3%; in [5], 2.3%. Further, the inhibition in assay [6] is -1%; in [7], -2.3%; in assay [8], -4.3%; in [9], 1%; in [10], -1%; in [11], -2.3%. Also, in assay [12], the inhibition came to 1%.

As to `Cc1n[nH]c(C)c1-c1ccc2c(NC(=O)c3ccc(N4CCN(C)CC4)cc3)n[nH]c2c1`, the inhibition was 1.3% in [13]; 3.3% in assay [14]; -0.7% in assay [15]; 73.3% in assay [16]; 32.3% in [17]; 11.7% in assay [18]. The inhibition was 38% in assay [19]; -1.7% in assay [20]; -6% in [21]; 95% in assay [22]; 7.7% in assay [23].

Take `COC(=O)Nc1noc2cc(-c3c(-c4ccccn4)n[nH]c3C)ccc12`: the inhibition turned out to be 2.7% in [24] and 17.3% in assay [25].
